# Results taken from patent publication US20250000875A1, “ALLOPREGNANOLONE ANALOGUES FOR HIV VIREMIA AND NEUROTOXICITY PROTECTION” (priority 2021, published 2025).
# Columns and labels:
# [1] = rabbits or mice, cited from earlier work
# [2] = women following three consecutive SC injections; cited from earlier work
# [3] = system: HIV-1BaL; experiment: anti-viremic capacity: HIV-1BaL replication in primary human microglia, p24 accumulation; assay type: cell-based; settings: for HIV-1BaL replication, accumulation of p24 HIV capsid protein: HIV-1BaL 1 ng/mL p24, over 10 days; for effect on efficacy of cART when co-administered: co-administered with cART
# Protocol: […] Corp.) as described previously.
# Assessment for viremia: Media, compounds 1-6, or 3α,5α-THP was assessed in a dose-response curve (0.1, 0.3, 1, 3.2, 10, 32, 100, 320, 1×10^3, 10×10^3, 100×10^3 nM) for their anti-viremic capacity (FIG. 9). To monitor infection, samples are taken every 72 h to measure p24 or proviral DNA129-130. Infection was confirmed post-hoc via immunocytochemical imaging of HIV-1 negative regulatory factor (Nef). As needed, TZM-bl and Jurkat reporter cells were also used to determine viral proliferation.
# Interactions with cART: Efficacious concentrations were re-assessed in separate mock- or HIV-1BaL-infected cultures in the presence or absence of Triumeq® [Abacavir (ABC; 10 μM)/dolutegravir (DTG; 1 nM)/lamivudine (3TC; 30 μM) dosing derived from FDA-approved insert] to assess interactions with viremic control, cytotoxicity, and cytokine production.
# [4] = system: mouse primary medium spiny neurons in mixed glial co-culture; experiment: Tat and/or gp120 neurotoxicity (necrosis, propidium iodide) in neuron/mixed glia co-culture; assay type: cell-based; settings: for baseline cell death: highest concentrations; for Tat and/or gp120-mediated necrosis / neurotoxicity: pretreatment, 0.001-10×10^3 nM, HIV-1 Tat and/or gp120 for 20 h
# Protocol: The trans-diol analogue of 3α, 5α-THP, 5α-pregnan-2β,3α-diol-20-one (compound 1) was synthesized. Mixed glia (derived from 0-1 day old mouse pups) and primary medium spiny neurons (from the striatum of E17 pups) were co-cultured as previously described. Co-cultures were pretreated with a concentration-response curve (0.001-10×10^3 nM) of 3α,5α-THP or the analogue, 1, and exposed to HIV-1 Tat and/or gp120 for 20 h. Prior time-lapse experiments have identified this time-point as the earliest time at which 3α,5α-THP protection is evident. Each treatment group consisted of 3 independent observations (with 2 technical replicates each). Necrotic cells were identified via propidium iodide labeling.
# [5] = system: primary, mouse splenocytes; experiment: mitogen-stimulated proliferation of splenocytes; assay type: cell-based; settings: high concentrations
# [6] = molecular target: HIV-1 trans-activation response element; settings: read-out: affinity; cited from earlier work
smiles,measurement,setting,value
"CC(=O)[C@H]1CC[C@H]2[C@@H]3CC[C@H]4C[C@H](O)CC[C@]4(C)[C@H]3CC[C@]12C [3α,5α-THP, 5α-pregnan-3α-ol-20-one]",elimination half-life (t1/2z),[1]; administered subcutaneously,0.2 to 0.667 h
same,elimination half-life (t1/2z) in brain,[1]; infused IV,~4 h
same,plasma clearance,[2],~4 h
same,"HIV-1BaL replication, accumulation of p24 HIV capsid protein",[3],attenuates
same,effect on efficacy of cART when co-administered,[3],Neither AlloP nor 1 impairs the efficacy of cART
same,increase in cell death,[4]; at 10 nM,5.7%
same,baseline cell death,[4],increased baseline cell death modestly
same,Tat and/or gp120-mediated necrosis / neurotoxicity,[4],significantly attenuated necrosis at every dose assessed
C[C@]12C[C@H](O)[C@H]3[C@@H](CCC4=CC(=O)CC[C@@]43C)[C@@H]1CC[C@@H]2C(=O)CO [corticosterone],mitogen-stimulated proliferation,[5],reduce mitogen-stimulated proliferation
"CC(=O)[C@H]1CC[C@H]2[C@@H]3CC[C@H]4C[C@H](O)[C@@H](O)C[C@]4(C)[C@H]3CC[C@]12C [compound 1, 2β,3α-dihydroxy-5α-pregnan-20-one]","HIV-1BaL replication, accumulation of p24 HIV capsid protein",[3],attenuates
same,effect on efficacy of cART when co-administered,[3],Neither AlloP nor 1 impairs the efficacy of cART
same,"potency in ameliorating Tat-neurotoxicity relative to 3α,5α-THP",[4],"equipotent to 3α,5α-THP"
same,increase in cell death,[4]; at 1 nM,8.8%
same,increase in cell death,[4]; at 10 nM,10.5%
same,baseline cell death,[4],increased baseline cell death modestly
same,Tat and/or gp120-mediated necrosis / neurotoxicity,[4]; listed as analogue 1,significantly attenuated necrosis at every dose assessed
"CN(C)[C@H]1C[C@@]23CC[C@@]4(O2)C(=CC[C@]2(C)C(c5ccc6ccncc6c5)=CC[C@H]24)C=C3[C@@H](O)[C@@H]1O [dCA, didehydro-cortistatin A]",Kd,[6],1 to 2 nM
